≈ marks a conversion by molar mass, not a printed value.

What all share (experiment): in vitro agar Petri dish dilution test
Holding throughout (format): cell-based

In one assay the test system is B. subtilis. Particulars: Bacillus subtilis, 100% inhibition, read-out: Minimum Inhibitory Concentration. The source says:
(§1) The inventive product has antimicrobial activity. In the conventional in vitro agar Petri dish dilution test for determining bactericidal and fungicidal activity, the compound gave 100% inhibition against the indicated organisms at the following concentrations in parts per million, the tabulated values being indicated as minimum inhibitory concentrations (MIC).

The next assay relates to P. chrysogenum. The following applies: Penicillium chrysogenum, 100% inhibition, read-out: Minimum Inhibitory Concentration.
From the text: as §1

Assay [1] concerns Pseudomonas Sp. Strain 10. Particulars: 100% inhibition, read-out: Minimum Inhibitory Concentration.
From the text: as §1

The subject of a further assay is S. marcescens NIH. Particulars: Serratia marcescens, 100% inhibition, read-out: Minimum Inhibitory Concentration.
From the text: as §1

In the next assay the test system is Torulopsis Species. The following applies: 100% inhibition, read-out: Minimum Inhibitory Concentration.
From the text: as §1

The subject of another assay is P. pullulans. The following applies: 100% inhibition, read-out: Minimum Inhibitory Concentration.
From the text: as §1

The next assay relates to A. niger. Particulars: Aspergillus niger, 100% inhibition, read-out: Minimum Inhibitory Concentration.
From the text: as §1

For another assay, the system named is C. ips. Particulars: 100% inhibition, read-out: Minimum Inhibitory Concentration.
From the text: as §1

The next assay concerns S. aureus. The following applies: Staphylococcus aureus, 100% inhibition, read-out: Minimum Inhibitory Concentration.
From the text: as §1

A further assay has as its system C. albicans. The following applies: Candida albicans, 100% inhibition, read-out: Minimum Inhibitory Concentration.
From the text: as §1

The next assay has as its system T. mentagrophytes. Particulars: Trichophyton mentagrophytes, 100% inhibition, read-out: Minimum Inhibitory Concentration.
From the text: as §1

The next assay has as its system C. pelliculosa. The following applies: Hansenula anomala, 100% inhibition, read-out: Minimum Inhibitory Concentration.
From the text: as §1

Another assay deals with A. fumigatus. The following applies: Aspergillus fumigatus, 100% inhibition, read-out: Minimum Inhibitory Concentration.
From the text: as §1

In another assay the test system is C. albicansNIH. The following applies: Candida albicans, 100% inhibition, read-out: Minimum Inhibitory Concentration.
From the text: as §1

In assay [2] the test system is K. pneumoniae M-1 Midland Hospital. The following applies: Klebsiella pneumoniae, 100% inhibition, read-out: Minimum Inhibitory Concentration.
From the text: as §1

The next assay concerns E. coli ATCC 11229. The following applies: Escherichia coli, ATCC11229, 100% inhibition, read-out: Minimum Inhibitory Concentration.
From the text: as §1

The subject of assay [3] is Trichoderm Sp. Madison P-42. The following applies: 100% inhibition, read-out: Minimum Inhibitory Concentration.
From the text: as §1

A further assay relates to S. typhosa. Particulars: 100% inhibition, read-out: Minimum Inhibitory Concentration.
From the text: as §1

Take `N#CC=CS(=O)(=O)c1cccc(C(F)(F)F)c1` [3-((3-(Trifluoromethyl)phenyl)sulfonyl)-2-propenenitrile]: the MIC with B. subtilis came to 5 µg/mL (≈ 19.1 µM); in the assay on P. chrysogenum, 50 µg/mL (≈ 191 µM); in assay [1], 100 µg/mL (≈ 383 µM); with S. marcescens NIH, 50 µg/mL (≈ 191 µM); in the assay on Torulopsis Species, 50 µg/mL (≈ 191 µM); with P. pullulans, 50 µg/mL (≈ 191 µM). Besides, the MIC with A. niger came out at 50 µg/mL (≈ 191 µM); in the assay with C. ips, 10 µg/mL (≈ 38.3 µM); in the assay on S. aureus, 5 µg/mL (≈ 19.1 µM); in the assay with C. albicans it was 50 µg/mL (≈ 191 µM); in the assay with T. mentagrophytes, 10 µg/mL (≈ 38.3 µM); with C. pelliculosa, 10 µg/mL (≈ 38.3 µM). Besides, the MIC in the assay with A. fumigatus stood at 50 µg/mL (≈ 191 µM); with C. albicansNIH, 50 µg/mL (≈ 191 µM); in [2], 50 µg/mL (≈ 191 µM); in the assay on E. coli ATCC 11229 it was 50 µg/mL (≈ 191 µM); in [3], 50 µg/mL (≈ 191 µM); in the assay with S. typhosa, 5 µg/mL (≈ 19.1 µM).
